Test results from patent US20250026722A1, “SUBSTITUTED QUINOLINES AS IMPROVED NF-KB-INDUCING KINASE (NIK) INHIBITORS” (YUKIN THERAPEUTICS, priority 2021, published 2025).
pEC50, pIC50: −log10 of the molar value.

Legend:
[1] = tested on: A375 cells; test: Proliferation assay in A375 cells (confocal imaging after seven days with compound); format: cell-based; conditions: Homo sapiens, A-375, 168 h, seven days in the presence of compounds
Protocol: (§1) A375 (American Type Culture Collection; CRL-1619) cells were seeded into 96 well plates (1,200 cells/well; Perkin Elmer; 6005225) and incubated overnight at 37° C., 5% CO2. Compounds prepared in media (Dulbecco's modified Eagle medium+10% foetal bovine serum+1% penicillin/streptomycin) were added to the cells and incubated for four days at 37° C., 5% CO2. Media was then aspirated from the cells and freshly prepared compounds were added to the cells, which were then incubated for a further three days at 37° C., 5% CO2. After a total of seven days in the presence of compounds, media was removed, and the cells were labelled with Hoechst (1 in 1,000; Thermo Fisher; 62249), TOTO™-3 (1 in 10,000; Thermo Fisher; T3604) and SPiDER βGAL (1.0 μM; Sigma-Aldrich; 94433) prepared in Hanks' Balanced Salt Solution supplemented with 1.0 mM HEPES buffer for 20 minutes at 37° C. Cells were imaged by confocal microscopy using an ImageXpress (Molecular Devices) at ×10 magnification. Images were analysed using MetaXpress software (Molecular Devices).

[2] = tested on: A375 cells; test: Senescence assay in A375 cells (SPiDER βGAL labelling, confocal imaging after seven days with compound); format: cell-based; conditions: Homo sapiens, A-375, 168 h, seven days in the presence of compounds
Protocol: as §1

[3] = biological target: T1, NIK (Homo sapiens, UniProt Q99558); test: NIK degradation Western-blot experiments in A375 cells; format: cell-based; conditions: 10 μM for 72 hrs, 5 μM MG132 during last 4 hours
T1 construct: endogenous in cells; host or cells: A375 cells
Protocol: A375 cells were plated in 6-well dishes at 2,000 cells/cm^2. The day after, cells were treated for 72 hrs with compounds of the examples at 10 μM. Cells were treated during the last 4 hours of the treatment period with 5 μM MG132 to inhibit proteasomal degradation. For protein isolation, cells were washed twice with PBS and then lysed using RIPA Buffer (1×) containing protease and phosphatase inhibitors. Following sonication, the lysate was centrifuged at 20,000 g for 10 min at 4° C. and the supernatants were collected and assayed for protein concentration using the BCA kit (Pierce).
Total protein (20 μg) was separated by electrophoresis on 10% SDS-polyacrylamide gels and transferred to PVDF membranes (Millipore). Blocking was performed in Tris-buffer saline containing 3% BSA. Membranes were incubated with the appropriate primary antibodies overnight at 4° C. (NIK, CST #4994, 1/2000) and β-actin (Santa-Cruz, sc-47778, 1/5000). After washing three times, membranes were incubated with horseradish peroxidase-conjugated secondary antibodies for 1 h. Bound antibodies were detected using an enhanced chemiluminescence plus kit (GE Healthcare). NIK degradation was tested and confirmed for the compounds of Examples 3, 4, 5, 6, 10 and 11 (see the corresponding table below). For illustration, the Western blot analysis of NIK degradation in cells treated with the compound of Example 3 (at 10 μM for 72 h) is shown in FIG. 1.

[4] = biological target: T1, NIK; conditions: pan kinase inhibitor, literature; cited from earlier work

T1 sequence (Q99558 whole entry): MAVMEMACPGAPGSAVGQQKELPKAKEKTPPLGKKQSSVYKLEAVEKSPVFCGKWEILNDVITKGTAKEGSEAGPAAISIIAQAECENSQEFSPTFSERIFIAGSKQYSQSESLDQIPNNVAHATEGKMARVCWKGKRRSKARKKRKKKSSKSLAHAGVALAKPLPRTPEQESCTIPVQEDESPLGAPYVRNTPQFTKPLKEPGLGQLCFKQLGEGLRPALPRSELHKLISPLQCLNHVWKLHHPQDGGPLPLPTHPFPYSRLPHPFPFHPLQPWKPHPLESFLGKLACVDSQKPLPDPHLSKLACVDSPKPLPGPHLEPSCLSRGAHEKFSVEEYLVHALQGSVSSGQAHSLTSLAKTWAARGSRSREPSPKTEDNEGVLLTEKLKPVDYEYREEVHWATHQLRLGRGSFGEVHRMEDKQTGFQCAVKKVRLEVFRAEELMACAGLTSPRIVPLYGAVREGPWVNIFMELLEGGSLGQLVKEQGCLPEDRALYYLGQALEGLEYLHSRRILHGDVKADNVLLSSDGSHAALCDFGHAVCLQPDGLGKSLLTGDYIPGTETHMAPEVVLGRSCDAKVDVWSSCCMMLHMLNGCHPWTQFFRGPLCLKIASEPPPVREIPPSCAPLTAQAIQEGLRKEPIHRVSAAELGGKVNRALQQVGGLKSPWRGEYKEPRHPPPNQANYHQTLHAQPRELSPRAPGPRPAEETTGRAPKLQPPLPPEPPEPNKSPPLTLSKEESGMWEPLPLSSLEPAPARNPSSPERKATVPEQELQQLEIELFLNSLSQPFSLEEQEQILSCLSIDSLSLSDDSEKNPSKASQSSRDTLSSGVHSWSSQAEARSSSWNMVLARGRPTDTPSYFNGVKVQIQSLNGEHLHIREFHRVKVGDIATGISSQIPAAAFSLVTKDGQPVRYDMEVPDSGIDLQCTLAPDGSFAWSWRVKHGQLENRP

SMILES	pIC50 [1]	pEC50 [2]	NIK degradation activity [3]	inhibition of the kinase activity (NIK) [4]
COCCOc1ccc(Nc2ccnc3cc(C(F)F)ccc23)cc1	5.76	5.64	–	–
COCCOc1ccc(Nc2ccnc3cc(C)ccc23)cc1	5.72	5.61	–	–
COCCOc1ccc(Nc2ccnc3cc(OC)ccc23)c(OC)c1 [Example 3, 7-methoxy-N-(2-methoxy-4-(2-methoxyethoxy)phenyl)quinolin-4-amine]	–	–	confirmed	–
COCCOc1ccc(Nc2ccnc3cc(-c4cnn(C)c4)ccc23)c(OC)c1 [Example 4, N-(2-methoxy-4-(2-methoxyethoxy)phenyl)-7-(1-methyl-1H-pyrazol-4-yl)quinolin-4-amine]	–	–	confirmed	–
COCCOc1ccc(Nc2ccnc3cc(C4=CCN(C)CC4)ccc23)c(OC)c1 [Example 5, N-(2-methoxy-4-(2-methoxyethoxy)phenyl)-7-(1-methyl-1,2,3,6-tetrahydropyridin-4-yl)quinolin-4-amine]	–	–	confirmed	–
COCCOc1ccc(Nc2ccnc3cc(N4CCN(C)CC4)ccc23)c(OC)c1 [Example 6, N-(2-methoxy-4-(2-methoxyethoxy)phenyl)-7-(4-methylpiperazin-1-yl)quinolin-4-amine]	–	–	confirmed	–
COCCOc1ccc(Nc2ccnc3cc(C(F)F)ccc23)c(OC)c1 [Example 9, 7-(difluoromethyl)-N-(2-methoxy-4-(2-methoxyethoxy)phenyl)quinolin-4-amine]	6.69	6.70	–	–
COCCOc1ccc(Nc2ccnc3cc(C)ccc23)c(OC)c1 [Example 10, N-(2-methoxy-4-(2-methoxyethoxy)phenyl)-7-methylquinolin-4-amine]	6.71	6.17	confirmed	–
COCCOc1ccc(Nc2ccnc3cc(C4CCN(C)CC4)ccc23)c(OC)c1 [Example 11, N-(2-methoxy-4-(2-methoxyethoxy)phenyl)-7-(1-methylpiperidin-4-yl)quinolin-4-amine]	–	–	confirmed	–
COCCOc1ccc(Nc2ccnc3cc(Cl)ccc23)cc1 [Reference compound (*), 7-chloro-N-(4-(2-methoxyethoxy)phenyl)quinolin-4-amine]	5.77	5.60	–	–
COc1ccc(Nc2ccnc3cc(Cl)ccc23)cc1O [Reference compound (**), 7-chloro-N-(3-(hydroxy)-4-(methoxy)phenyl)quinolin-4-amine]	< 5.00	< 5.00	–	–
CN[C@@H]1C[C@H]2O[C@@](C)([C@@H]1OC)n1c3ccccc3c3c4c(c5c6ccccc6n2c5c31)C(=O)NC4 [staurosporine]	–	–	–	micromolar level
